Like-named read-outs stand apart in the source and are kept apart here.
Tests used:
HFFs = assay: Neutral red cytotoxicity assay in HFFs (10 day, with plaque reduction assay); assay type: cell-based, human; settings: 10 day assay
Experimental: HCMV plaque reduction EC50 and toxicity assays. Low passage primary HFFs were infected with HCMV strain AD169 in the presence of serial dilutions of the compounds from 0.032 to 100 μM. Ten days later the monolayers were stained with 1% neutral red solution in PBS. After rinsing, plaques were counted using a stereomicroscope and the EC50 was interpolated from the data. Cytotoxicity was measured using a plate-based assay in which compounds were added to HFFs at 0.032 to 100 μM. At the end of the incubation period, plates were stained for 1 h with a neutral red solution in PBS. The stain was then removed, the plates rinsed in PBS and dried, and dye internalized by viable cells was determined at OD550. CC50 values were interpolated from the data.
Compounds #41, 46, 49, 55, 56, and 59 and the FDA-approved, anti-HCMV drug ganciclovir were subsequently evaluated with plaque reduction and toxicity assays in HFFs. HFFs were infected with HCMV in the presence of serial dilutions of the compounds. After 10 days the cultures were stained with neutral red and plaques were counted. Compound cytotoxicity for uninfected cells was determined in the same manner except that neutral red uptake by viable cells was measured by optical density. […] The TI values for the five NTS inhibitors of HCMV ranged from 5 for compound #46 to 17 for #55 and 59. Therefore, NTS inhibitors can suppress HCMV replication in addition to inhibiting the HSVs.

HCMV strain AD169 = assay: Anti-HCMV CPE inhibition assay (crystal violet) in HFFs; assay type: cell-based, human cytomegalovirus; settings: 14 days; for EC50: read-out: EC50 against HCMV, CPE inhibition assay
Experimental: Anti-HCMV CPE inhibition and cytotoxicity assays. HFFs were infected with HCMV strain AD169 in the presence of serial dilutions of the compounds from 0.0192 to 60 μM. Fourteen days later the monolayers were stained with crystal violet, and retained cell density was quantified using a multiplate autoreader (BioTek). Cytotoxicity was measured the same way, except that the cells were uninfected and neutral red internalization by viable cells was measured.
Antiviral efficacy against HCMV. The ability of select HSV inhibitors to inhibit replication of another major human herpesvirus pathogen, human cytomegalovirus (HCMV) (65) was tested. This was based on the inhibitors strong suppression of HSV-1 and HSV-2 and the prediction that other members of the herpesvirus family would be sensitive to NTS inhibitors due to their shared DNA replication mechanism. Compounds #41, 46, 49, 55, 56, and 59 and the FDA-approved anti-HCMV drug ganciclovir were evaluated with crystal violet CPE and neutral red toxicity assays in HFFs. HFFs were infected with HCMV in the presence of serial dilutions of the compounds that were most inhibitory for HSVs. After 14 days the monolayers were stained and cell density was determined by OD reading. Compound cytotoxicity for uninfected cells was determined in the same manner except that neutral red uptake by viable cells was measured. […] The TI values for the four NTS inhibitors of HCMV ranged from 4 for compound #41 to 38 for #56. Therefore, NTS inhibitors can suppress HCMV replication in addition to inhibiting the HSVs.

Vero cells = assay: MTT mitochondrial toxicity assay in Vero cells; assay type: cell-based; settings: 24 h; read-out: Vero cell toxicity MTT CC50
[1] = system: primary human foreskin fibroblasts; assay: in vitro
Experimental: Toxicity Assays. Qualitative assessments of cytotoxicity were done visually by inspecting the cells in the primary screening assays. For the quantitative assays, cells were plated in 96-well plates at 1.0×10^4 per well. The next day the compounds were added at 0.78 to 100 μM in a final concentration of 1% (v/v) DMSO, and the cells were incubated for 24 hours under conditions identical to those employed for the viral replication inhibition assays. Mitochondrial toxicity was measured by incubating the cells with 0.25 mg/mL thiazolyl blue tetrazolium bromide (MTT, SigmaAldrich Chemical Co.), the cultures were incubated for 60 min, metabolites were solubilized in acidic isopropanol, and absorbance was read at 570 nm. Cellular lysis was measured by detecting release of intracellular proteases with the CytoTox-Glo assay (Promega) according to the manufacturer's instructions. Percent viability was determined for each compound concentration from the maximal absorbance or luminosity data, and then CC50 values were calculated by non-linear curve fitting using GraphPad Prism.
Inhibition of viral replication was next assessed in human foreskin fibroblasts (HFF) to determine whether NTS inhibitors could block HSV-1 and HSV-2 replication in a physiologically relevant, primary human cell type. […] Viral yields 24 hours post-infection were measured by plaque assay.

HSV-2 = HSV-2 viral DNA replication (quantitative PCR, GE) versus infectious virus (PFU) in Vero cells; assay type: cell-based, herpes simplex virus 2; settings: for Fold suppression GE / Fold suppression PFU: 24 h, relative to DMSO
Experimental: Quantitative PCR measurement of viral genome levels. Infected cell cultures were collected and virus and cells were pelleted by centrifugation for 30 min at 12,000 rpm. Total DNA was isolated from the pellets using a QIAamp DNA Mini Kit (Qiagen) according to the manufacturer's instructions. DNA concentration of each preparation was measured using a Nanodrop 2000 spectrophotometer. The primers and probe for real-time PCR were designed to amplify a 108 bp segment in the HSV-2 LAT region. […] PCR reactions were set up in 25 μL containing FastStart Universal Probe master mix containing Rox (Roche), 900 nM forward and reverse primers, 250 nM probe, and 5 μL template DNA preparation (˜30-100 ng total DNA). Quantification was performed in triplicate for each DNA preparation using an ABI model 7500 genetic analyzer (Applied Biosystems) with the following cycling parameters: 1 cycle at 50° C. for 2 min, 1 cycle at 95° C. for 10 min, 40 cycles at 95° C. for 15 s, and 60° C. for 1 min. For absolute quantification, 10^3 to 10^8 copies of plasmid pcDNA3.1(+)5′Flag-ICP0 was used to generate a standard curve. Data were analyzed using Sequence Detection System software (ABI), and HSV-2 genome equivalents number per nanogram of total DNA was calculated and used for comparison.
Viral replication was measured 24 hours post-infection by plaque assay, and DNA replication was measured using quantitative PCR against the LAT gene and expressed as genome-equivalents (GE). […] Two inhibitor concentrations were assessed for compounds #30 (60 and 20 μM) and #46 (20 and 10 μM).

HSV-1 = assay: Topical treatment of mice infected with HSV-1 on the cornea; assay type: in vivo; settings: for Body weight post-infection: 1 μg three times daily for 5 days
Experimental: Compounds were administered at 1 μg/eye in 10% DMSO. Two mice were treated with 10% DMSO as a negative control. The corneal surface was swabbed once per day on days 1, 2, 4 and 5 post-infection and titer of virus shed from the epithelium was determined by standard plaque assay. On the fifth day post-infection mice were euthanized and the trigeminal ganglia (TG) and brainstems were dissected. The tissues were disrupted and virus in them quantified by plaque assay. […] Weight of individual mice was recorded daily. […] Saline was a negative control. On the fifth day post-infection mice were euthanized and the trigeminal ganglia (TG) and brainstems were dissected. The tissues were disrupted and virus in them quantified by plaque assay.
Body weight was monitored daily post-infection as a sensitive indicator of overall health (FIG. 12).
Infected mice treated with saline served as a negative control.

[2] = 7.5 μg/eye three times per day, BALB/c mice, versus saline control
[3] = 1 μg/eye once daily, compared with DMSO control

Row | SMILES | CC50 (HFFs) | EC50 (HCMV strain AD169) | CC50 (Vero cells) | CC50 [1] | EC50 against HCMV, CPE inhibition assay (HCMV strain AD169) | Fold suppression PFU/GE (HSV-2; 20 μM) | Fold suppression GE (HSV-2; 20 μM) | Fold suppression PFU (HSV-2; 20 μM) | further results
1 | CC(=O)NC(CCc1ccc(Cl)c(Cl)c1)c1cccc(O)c(=O)c1 (stereo not drawn) [Compound 55] | 8 µM | > 60 µM | > 100 µM | > 100 µM |  |  |  |  | 
2 | Cc1cc(C2CCCCC2)n(O)c(=O)c1 [Compound 41, Ciclopirox, reference compound] |  |  |  |  | very low μM range |  |  |  | Fold suppression PFU/GE (HSV-2; 10 μM): 62.0; Fold suppression GE (HSV-2; 10 μM): 551 fold; Fold suppression PFU (HSV-2; 10 μM): 34159 fold; Titers of virus in the TG on day 5 post-infection (HSV-1; [2]): lower; Titers of virus in the brainstem on day 5 post-infection (HSV-1; [2]): lower; EC50 (HCMV strain AD169; Human betaherpesvirus 5, AD169, 336 h): 2.1 µM
3 | CCOc1ccc(-c2c3cc(O)c(=O)cc-3oc3cc(O)c(O)cc23)cc1 [Compound 30] |  |  | > 100 µM | > 100 µM |  | 4.5 | 150 fold | 676 fold | Fold suppression PFU/GE (HSV-2; 60 μM): 143.7; Fold suppression GE (HSV-2; 60 μM): 247 fold; Fold suppression PFU (HSV-2; 60 μM): 35500 fold
4 | Nc1nc2c(ncn2COCCO)c(=O)[nH]1 [ACV, Acyclovir, reference compound] |  |  |  |  |  |  |  |  | Body weight post-infection (HSV-1): maintained their weight through 8 days post-infection; Virus in the TG at 5 days post-infection (HSV-1; [3]): significantly reduced; Virus shed in the tear film (HSV-1; [3]): transiently reduced; Titers of virus in the TG on day 5 post-infection (HSV-1; [2]): reduced to a similar extent
5 | CC(C)c1ccc(O)c(=O)c(O)c1 [Compound 46, Beta-thujaplicinol] | 6.7 µM | 1.4 µM | > 100 µM | > 100 µM | very low μM range | 538.2 | 615 fold | 331000 fold | Fold suppression PFU/GE (HSV-2; 10 μM): 541.6; Fold suppression GE (HSV-2; 10 μM): 470 fold; Fold suppression PFU (HSV-2; 10 μM): 254536 fold; Body weight post-infection (HSV-1): maintained their weight through 8 days post-infection; Virus in the TG at 5 days post-infection (HSV-1; [3]): significantly reduced; Virus in the brainstem at 5 days post-infection (HSV-1; [3]): significantly reduced; Virus shed in the tear film (HSV-1; [3]): transiently reduced
6 | CC(C)=CCc1ccc(O)c(=O)cc1C(C)C [Compound 49, Nootkatin] | 6.7 µM | 1.7 µM | > 100 µM | > 100 µM | very low μM range |  |  |  | 
7 | C=C(C)C1CCc2c(c(C)cc(O)c(=O)c2O)C1 (stereo not drawn) [Compound 56, Manicol] | 6.7 µM | 38.4 µM | > 100 µM | > 100 µM | very low μM range | 314.3 | 420 fold | 132000 fold | 

Reference: patent US10463664B2, “Inhibitors of HSV nucleotidyl transferases and uses therefor” (Saint Louis University, priority 2013, dated 2019)
